# In patent US9963476B2, “Antioxidant compound having anti atherosclerotic effect and preparation thereof” (Council of Scientific and Industrial Research, priority 2015, dated 2018):
# Columns and labels:
# HAEC = assay: Cellular uptake: Mito-Esc/esculetin quantified by ESI-MS in cytosolic and mitochondrial fractions of HAEC; assay type: in vitro ADME, human
# Description: (§1) After the treatment, cells were washed thrice with PBS. Similarly Mito-Esculetin+ Ang-II treatment group, Ang-II alone treatment group and control Apo E^−/− mice aortic tissue was taken. The isolation of mitochondrial and cytosolic extracts was carried out using a commercially available Proteo Extract Cytosol/Mitochondria Fractionation Kit (Cat. no. QIA88-Merck, USA) according to manufacturer's instructions. Initially, mitochondrial and cytosolic fractions were separated using a commercially available kit as mentioned elsewhere. Mito-Esc was quantified in the mitochondrial and cytosolic fractions obtained from HAEC and aorta of ApoE^−/− mice of different treatment groups as mentioned in Animal Experiments section (Table-1). Electrospray ionization (ESI)-MS. ESI-MS (positive mode) measurements were performed using a quadrupole time-of-flight mass spectrometer (QSTAR XL, Applied Biosystems/MDS Sciex, Foster City, Calif., USA). The data acquisition was under the control of Analyst QS software (Applied Biosystems). For the CID (collision-induced dissociation) experiments, the precursor ions were selected using the quadrupole analyzer and the product ions were analyzed using the TOF analyzer.
# Apo E−/− mice aorta = assay: Mito-Esc quantified by ESI-MS in cytosolic and mitochondrial fractions of ApoE−/− mice aortic tissue; assay type: in vivo; conditions: 0.5 mg/kg/day in drinking water
# Description: as §1, with “E^-/-” for “E^−/−”, “ApoE^-/-” for “ApoE^−/−”
# [1] = system: caspase-3 and -8 activation in HAEC; assay: Caspase-3 and -8 activity in HAEC lysates; assay type: cell-based, human; conditions: 2.5 μM pretreatment
# Description: Human aortic endothelial cells (HAECs) were obtained from ATCC (Manassas, Va.) and maintained (37° C. 5% CO2) in basal medium supplemented with 10% FBS, VEGF (5 ng/mL), hEGF (5 ng/mL), hFGF (5 ng/mL), IGF-1 (15 ng/mL), ascorbic acid (50 μg/mL), hydrocortisone (1 μg/mL), amphotericin (15 ng/mL), gentamicin (30 ng/mL) and heparin (0.75 Units/mL). Cells used in this study were between passages 4 and 9.
# HAEC were washed twice with cold DPBS and lysed in buffer containing 10-mM Tris-HCl, 10-mM NaH2PO4/Na2HPO4 (pH, 7.5). 130-mM NaCl. 1% Triton, and 10-mM sodium pyrophosphate. Cell lysates were incubated with either with caspase-3 fluorogenic substrate (N-acetyl-Asp-Glu-Val-Asp-7-amido-4-methylcoumarin) or caspase-8 fluorogenic substrate (N-acetyl-Ileu-Glu-Thr-Asp-7 amido-4-methylcoumarin) at 37° C. for 1 h. The 7-amido-4-methyl-coumarin liberated was measured in a multi mode reader (PerkinElmer) with λex=380 nm and λem=460 nm.
# [2] = system: mitochondrial membrane potential in HAEC; assay: Mitochondrial transmembrane potential (JC-1 / Mito-Sensor dye); assay type: cell-based, human; conditions: H2O2 500 μM, 16 h
# Description: Mitochondrial potential was assessed by using the fluorescent potentiometric JC-1 dye. In healthy cells, JC-1 forms J-aggregates that display a strong red fluorescence with excitation of 560 nm and emission wavelength at 595 nm. In apoptotic or unhealthy cells, JC-1 exists as monomers that display a strong green fluorescence with excitation and emission at 485 nm and 535 nm, respectively. At the end of the treatments, cells were washed with Dulbeccos phosphate buffer solution (DPBS) and incubated with JC-1 dye ([…]) for 20 min. Cells were again washed twice with DPBS and maintained in culture medium. Fluorescence was monitored by using Olympus fluorescence microscope with Rhodamine and Fluorescein isothiocyanate (FITC) filters.
# Ang-II is known to increase oxidative stress through increased production of H2O2 (Doughan A K, Harrison D G, Dikalov S I. Circ Res (2008) 102:488-96). […] Further, we assessed the effect of Mito-Esc on H2O2-induced mitochondrial membrane depolarization. HAEC were treated with H2O2 (500 μM) in the presence or absence of Mito-Esc for a period of 16 h and mitochondrial membrane potential was measured using a mitochondrial membrane sensor kit. […] In apoptotic cells, membrane potentials are altered and the Mito-Sensor dye cannot accumulate in mitochondria and, thus, remain as monomers leading to a green fluorescence.
# [3] = system: eNOS phosphorylation (Ser-1177); assay: Western blot of eNOS phosphorylation in HAEC; assay type: cell-based, human; conditions: 8 h
# Description: To gain mechanistic insight on Mito-Esc-mediated protection of endothelial cells from oxidant-induced endothelial cell death, initially we hypothesized that Mito-Esc may augment intracellular nitric oxide generation. To study this, HAEC were treated with both Mito-Esc and esculetin in the presence or absence of H2O2 for a period of 4 h and nitric oxide (NO) levels were monitored by DAF-2 derived green fluorescence. Previously, it has been shown that DAF-2 forms a fluorescent triazole-type product in the presence of an oxidant derived from nitric oxide and oxygen interaction (Proc. Natl. Acad. Sci. USA 99: 11127-11132; 2002.; Am. J. Physiol. Regul. Integ. Comp. Physiol. 286:R344-R431; 2004). […] Next, we investigated the possible role of endothelial nitric oxide synthase (eNOS) in mediating the Mito-Esc induced NO generation in HAEC. For this, endothelial cells were treated with various concentrations of Mito-Esc (1-5 μM) for a period of 8 h. […] To further substantiate the results of DAF fluorescence, eNOS phosphorylation was measured in HAEC incubated with either with H2O2 or Ang-II for 8 h in cells pretreated with Mito-Esc or native esculetin. It was observed that both H2O2 and Ang-II caused a reduction in Phospho eNOS (Ser-1177) levels (FIG. 4D). Ang-II treatment imposed a drastic inhibition of phospho-eNOS levels when compared to H2O2 treatment in endothelial cells (FIG. 4D).
# [4] = system: mitochondrial content in HAEC; assay: Mitotracker staining of mitochondrial content; conditions: 2.5 μM, 8 h
# Description: Mitochondrial content in cells was assessed by selectively loading the mitochondria with the red fluorescent dye Mitotracker (Invitrogen, Carlsbad, Calif.).
# [5] = system: eNOS and AMPK phosphorylation; assay: eNOS and AMPK phosphorylation in total aorta lysate of ApoE−/− mice; conditions: compared to Ang-II alone or control
# Description: Experiments were conducted in 2-month-old male apolipoprotein E knockout (ApoE^−/−) mice according to the guidelines formulated for care and use of animals in scientific research (ICMR, New Delhi, India) at a CPCSEA (Committee for the Purpose of Control and Supervision of Experiments on Animals) registered animal facility. […] Animals were randomly divided into 3 groups each n=7:1) control 2) Ang-II treatment and 3) Mito-Esculetin+Ang-II treatment. Ang-II and Mito-Esculetin treatment groups received Ang-II (sigma) at a dose of 1.44 mg/kg/day for 6 weeks through sub-cutaneous route where as control group received normal saline. Mito-Esculetin treatment group received the compound at a dose of 0.5 mg/kg/day in normal drinking water. […]
# At the end of the treatments, HAECs were washed with ice-cold DPBS and resuspended in RIPA buffer (20 mM Tris-HCl, pH 7.4/2.5 mM EDTA/1% Triton X-100/1% sodium deoxycholate/1% SDS/100 mM NaCl/100 mM sodium fluoride) containing protease inhibitor cocktail and phosphatase inhibitor cocktail-2 and -3. […] Protein bands were detected by using HRP substrate (Millipore-luminata). […]
# To further corroborate Mito-Esc's ability to protect from Ang-II-induced endothelial dysfunction during the progression of atheromatous plaque formation, we measured phospho-AMPK, AMPK, phospho-eNOS and eNOS protein levels in total aorta lysate.
# [6] = system: Ang-II-induced atherosclerosis in ApoE−/− mice; assay: Ang-II-induced aortic aneurysm and atheromatous plaque formation in ApoE−/− mice
# Description: Experiments were conducted in 2-month-old male apolipoprotein E knockout (ApoE^−/−) mice according to the guidelines formulated for care and use of animals in scientific research (ICMR, New Delhi, India) at a CPCSEA (Committee for the Purpose of Control and Supervision of Experiments on Animals) registered animal facility. […] Animals were randomly divided into 3 groups each n=7:1) control 2) Ang-II treatment and 3) Mito-Esculetin+Ang-II treatment. Ang-II and Mito-Esculetin treatment groups received Ang-II (sigma) at a dose of 1.44 mg/kg/day for 6 weeks through sub-cutaneous route where as control group received normal saline. Mito-Esculetin treatment group received the compound at a dose of 0.5 mg/kg/day in normal drinking water. All animals were fed on normal chow throughout the study. After 6 weeks, all groups of animals were sacrificed as per standard protocols for euthanasia.
# We further analyzed the vascular remodelling employing histological stains in tissue sections of thoracic aortas. […] In tune with this, we have also measured Mac-3 levels by flow cytometry.
# [7] = ApoE−/− mice, thoracic aorta sections
compound,measurement,setting,value
O=c1cc(CCCCCCCC[P+](c2ccccc2)(c2ccccc2)c2ccccc2)c2cc(O)c(O)cc2o1.[Br-] [Mito-Esc],accumulation in the mitochondria compared to native esculetin,HAEC,selectively accumulated in the mitochondria
same,Cytosolic fraction,"HAEC; HAEC, 2.5 μM, 24 h",4488 ± 104 nmol/mg protein
same,Mitochondrial fraction,"HAEC; HAEC, 2.5 μM, 24 h",14523 ± 342 nmol/mg protein
same,Mitochondrial fraction,Apo E−/− mice aorta,2547 ± 286 nmol/mg protein
same,H2O2 and Ang-II-induced caspase-3 and -8 activation,[1],markedly resistant
same,H2O2-mediated mitochondrial membrane depolarization,[2],significantly rescued
same,phosphorylation of eNOS at Ser-1177,[3]; 1-5 μM,dose-dependently increased
same,oxidant-mediated decrease in eNOS-phosphorylation,"[3]; H2O2 or Ang-II, pretreated cells",caused cells resistant to oxidant-mediated decrease
same,"mitochondrial content, treatment alone compared to control",[4],increased mitochondrial content
same,phosphorylation statuses of eNOS and AMPK in total aorta lysate,[5],significant increase
same,thick fibrous mature connective tissue around atheroma (Masson trichrome staining),[6]; ApoE−/− mice aorta,almost disappeared
same,"Ang-II-induced plaque extension, micro/pseudo aneurysm formation and maximal aortic diameters","[6]; ApoE−/− mice, thoracic and abdominal aorta, six weeks, 0.5 mg/kg/day in drinking water",significant reduction
same,Ang-II induced severe atherosclerotic lesions (H&E staining of aorta),[6]; [7],complete protection
same,luminal diameter compared to Ang-II alone,[6]; [7],significantly restored
